Test results reported in patent publication US20160206597A1, “New Use” (priority 2013, published 2016).

What was measured:
[1] = system: patients with chronic heart failure with preserved left-ventricular ejection fraction (HF-PEF); assay: Echocardiographic parameters in the 36-week HF-PEF study; assay type: in vivo, human; settings: for LA Volume Index, Δ from Baseline / LA Volume, Δ from Baseline / LA dimension, Δ from Baseline / LV mass index, Δ from Baseline / Relative wall thickness, Δ from Baseline: at 36 weeks
Procedure: Echocardiographic studies are performed at screening, randomization, at week 12, and week 36 or at end of study or early termination visits. Echocardiograms performed at screening are evaluated by local readers for qualifying information. All other echocardiograms are only performed in patients meeting NT-proBNP entry criterion and are evaluated centrally. For assessment of global ventricular size and function, left ventricular end-diastolic and end-systolic volumes are obtained utilizing the Simpson's rule method and left ventricular ejection fraction is derived in the usual fashion. Maximal left atrial dimension is measured in the parasternal long-axis view, and left atrial volume is assessed with the Simpson's rule method and indexed to body surface area. Measurements are made in triplicate in accordance with the recommendations of the American Society of Echocardiography. Blood pressure and heart rate are measured at all study visits with a calibrated standard sphygmomanometer and appropriate size cuff. The use of concomitant medication is recorded at each study visit.

[2] = system: patients with chronic heart failure with preserved left-ventricular ejection fraction (HF-PEF); assay: Renal function parameters (eGFR, serum creatinine, urinary albumin creatinine ratio) in the 36-week HF-PEF study; assay type: in vivo, human; settings: for urinary albumin creatinine ratio at baseline: baseline before treatment; for eGFR decrease over 36 weeks: p=0.007; for urinary albumin creatinine ratio at week 36: p=0.02 between groups
Procedure: The term “eGFR” refers to estimated glomerular filtration rate. Within the context of the present invention the eGFR is calculated by the Modification in Diet in Renal Disease (MDRD) formula, which is the one recommended by NICE and The Renal Association (UK), and which is based on the equation described in Levey A S, Bosch J P, Lewis J B, et al; “A more accurate method to estimate glomerular filtration rate from serum creatinine: a new prediction equation. Modification of Diet in Renal Disease Study Group.” Ann Intern Med. 1999 Mar. 16; 130(6):461-70.
(§1) Men and women aged 40 years or older with a left ventricular ejection fraction of 45% or above, and a documented history of heart failure with associated signs or symptoms (dyspnea on exertion, orthopnea, paroxysmal dyspnea, and peripheral edema) are eligible. Patients are required to have an NT-proBNP >400 pg/mL at screening, be on diuretic therapy, and have a systolic blood pressure less than 140 mm Hg, or 160 mm Hg or less if on three or more blood pressure medications at randomization. Additional inclusion criteria include an estimated glomerular filtration rate (eGFR) of at least 30 ml/min/1.73 m^2 at screening (calculated by the Modification of Diet in Renal Disease formula) and a potassium concentration of no more than 5.2 mmol/L.

[3] = system: patients with chronic heart failure with preserved left-ventricular ejection fraction (HF-PEF); assay: NT-proBNP in 36-week randomized double-blind study of LCZ696 vs valsartan; assay type: in vivo, human; settings: for NT-proBNP at 12 weeks / NT-proBNP at 36 weeks / NT-proBNP, Baseline (12-week analysis) / NT-proBNP, Baseline (36-week analysis): geometric mean; for NT-proBNP at 12 weeks / NT-proBNP at 36 weeks: LCZ696 200 mg or valsartan 160 mg twice daily; for NT-proBNP, Baseline (12-week analysis) / NT-proBNP, Baseline (36-week analysis): baseline before treatment; for NT-proBNP, Baseline (12-week analysis): patients evaluated at 12 weeks; for NT-proBNP, Baseline (36-week analysis): patients evaluated at 36 weeks; for Ratio of change in NT-proBNP (LCZ696/valsartan) at 12 weeks: baseline to 12 weeks, 95% CI 0.64-0.92, p = 0.005
Excerpt: as §1
Patients are excluded if they had prior left ventricular ejection fraction less than 45% at any time, isolated right heart failure due to pulmonary disease, dyspnea due to non-cardiac causes such as pulmonary disease, anemia, or severe obesity, primary valvular or myocardial diseases, or coronary artery or cerebrovascular disease requiring revascularization within 3 months of screening or likely to require revascularization during the trial.

[4] = system: patients with chronic heart failure with preserved left-ventricular ejection fraction (HF-PEF); assay: Safety and tolerability in the 36-week HF-PEF study; settings: 36-week study
Procedure: (§2) Eligible patients are enrolled into a 2-week, single-blind placebo run-in period, during which time they continue their background medications. ACE inhibitors and angiotensin receptor blockers are required to be discontinued 24 hours prior to randomization.
(§3) At the investigator's discretion, patients are allowed to stay on each titration dose for an additional week. […] Patients remain on these doses for the remainder of the study, although those not tolerating the maximum dose of study medication could be down-titrated to a lower dose at the Investigator's discretion and then re-challenged to the maximum dose of study medication, or remain on the lower dose.

[5] = system: patients with chronic heart failure with preserved left-ventricular ejection fraction (HF-PEF); assay: NYHA class, clinical composite assessment and KCCQ in the 36-week HF-PEF study; settings: p=0.05
Procedure: as §2, §3
The primary study endpoint is the change from baseline in NT-proBNP assessed at 12 weeks, and is analyzed using the last observation after baseline carried forward. […]
The clinical composite assessment is based on a composite of the NYHA functional classification, patient global assessment and major adverse clinical events. […] Patients are determined to be worse if at the endpoint visit they experienced a major adverse cardiac event during the double blind treatment or reported worsening of their NYHA class or patient global assessment. […]

CCCCC(=O)N(Cc1ccc(-c2ccccc2-c2nnn[nH]2)cc1)[C@H](C(=O)O)C(C)C [Valsartan, (S)—N-valeryl-N-{[2′-(1H-tetrazole-5-yl)-biphenyl-4-yl]-methyl}-valine, reference compound]
LA Volume Index, Δ from Baseline [1]: 0.31 ml/m^2
LA Volume, Δ from Baseline [1]: 0.37 mL
LA dimension, Δ from Baseline [1]: −0.08 cm
LV mass index, Δ from Baseline [1]: −1.93 g/m^2
Relative wall thickness, Δ from Baseline [1]: +0.01%
LA Volume Index, Baseline ([1]; baseline before treatment): 36.80 ml/m^2
LA Volume, Baseline ([1]; baseline before treatment): 68.28 mL
LA dimension, Baseline ([1]; baseline before treatment): 3.73 cm
LV mass index, Baseline ([1]; baseline before treatment): 79.45 g/m^2
urinary albumin creatinine ratio at baseline [2]: 2.0 mg/mmol
eGFR decrease over 36 weeks [2]: −5.2 mL/min per 1.73 m^2
urinary albumin creatinine ratio at week 36 [2]: 2.0 mg/mmol
NT-proBNP at 12 weeks ([3]; 12 weeks): 835 pg/mL
NT-proBNP at 36 weeks [3]: 607 pg/mL
NT-proBNP, Baseline (12-week analysis) [3]: 862 pg/mL
NT-proBNP, Baseline (36-week analysis) [3]: 822 pg/mL
Adverse event atrial fibrillation (number of patients) [4]: 8 patients
Adverse event atrial fibrillation (percent of patients) [4]: 5.3%
Angio-oedema occurrence [4]: no patients
Deaths among serious adverse events [4]: two deaths
Patients with one or more serious adverse events (number) [4]: 30 patients
Patients with one or more serious adverse events (percent) [4]: 20%

trisodium [3-((1S,3R)-1-biphenyl-4-ylmethyl-3-ethoxycarbonyl-1-butylcarbamoyl) propionate-(S)-3′-methyl-2′-(pentanoyl{2″-(tetrazol-5-ylate)biphenyl-4′-ylmethyl}amino)butyrate]hemipentahydrate [LCZ696]
Left atrial volume, left atrial volume index (LAVI) and left atrial dimension, result in words ([1]; after 36 weeks of treatment, p=0.003, 0.007 and 0.034): reduced significantly
LA Volume Index, Δ from Baseline [1]: −2.61 ml/m^2
LA Volume, Δ from Baseline [1]: -4.61 mL
LA dimension, Δ from Baseline [1]: −0.15 cm
LV mass index, Δ from Baseline [1]: −2.78 g/m^2
Relative wall thickness, Δ from Baseline [1]: +0.01%
LA Volume Index, Baseline ([1]; baseline before treatment): 35.01 ml/m^2
LA Volume, Baseline ([1]; baseline before treatment): 65.26 mL
LA dimension, Baseline ([1]; baseline before treatment): 3.68 cm
LV mass index, Baseline ([1]; baseline before treatment): 76.56 g/m^2
Relative wall thickness, Baseline ([1]; baseline before treatment): 0.37
Preservation of renal function compared with valsartan ([2]; after 36 weeks of therapy, eGFR and creatinine data): better preserved renal function
eGFR, LSM of difference (95% CI), LCZ696 vs. Valsartan ([2]; at 36 weeks, P 0.0163): 3.46 (0.64, 6.27) mL/min/1.73 m^2
Serum creatinine, LSM of difference (95% CI), LCZ696 vs. Valsartan ([2]; at 36 weeks, P 0.0193): −4.83 (−8.87, −0.79) μmol/L
urinary albumin creatinine ratio at baseline [2]: 1.9 mg/mmol
eGFR decrease over 36 weeks [2]: −1.6 mL/min per 1.73 m^2
urinary albumin creatinine ratio at week 36 [2]: 2.9 mg/mmol
NYHA class at 36 weeks compared with the valsartan group [5]: improvement in NYHA class
Reduction in NT-proBNP versus valsartan after adjustment for the change in blood pressure ([3]; 12 weeks, p=0.01): greater reduction
Early reduction in NT-proBNP compared with the valsartan group ([3]; after 4 weeks of treatment, p=0.063): not significant
Ratio of change in NT-proBNP (LCZ696/valsartan) at 12 weeks [3]: 0.77
Ratio of change in NT-proBNP (LCZ696/valsartan) at 12 weeks ([3]; listed as LZC696): 0.77 (95% CI
Ratio of change in NT-proBNP (LCZ696/valsartan) at 36 weeks ([3]; baseline to 36 weeks, 95% CI 0.65-1.09, p = 0.20): 0.85 (95% CI
NT-proBNP at 12 weeks ([3]; 12 weeks): 605 pg/mL
NT-proBNP at 36 weeks [3]: 496 pg/mL
NT-proBNP, Baseline (12-week analysis) [3]: 783 pg/mL
NT-proBNP, Baseline (36-week analysis) [3]: 763 pg/mL
